In patent publication US20230227406A1, “MODULATORS OF E3 LIGASES” (Rekindle Therapeutics Inc., priority 2020, published 2023):

Assays:
WWP1 [1] = biological target: T1, WWP1 (Homo sapiens, UniProt Q9H0M0); assay: WWP1 MALDI-MS ubiquitin depletion assay (auto-ubiquitination); type: biochemical; conditions: 30 min pre-incubation, 90 minutes at 37° C.
T1 construct: purchased Ubiquigent 63-0034-025/30033/D
Description: Modulators designed in these ways were tested for HECT domain E3 ligase activity in a MALDI TOF assay of auto-ubiquitination (De Cesare et al, Cell Chem. Biol, 2018, 25, 1117)
UBE1 (E-305 Boston Biochem), UBE2D1 (E2-616 Boston Biochem), WWP1 (Ubiquigent #63-0034-025/30033/D), ubiquitin variants (Boston Biochem; ubiquitin: U-100H; WT-His6-Ub: U-530; K27R-His6-Ub:UM-HK27R; K27O-His6-Ub: UM-HK27O), alpha-cyano-4-hydroxycinnamic acid (CHCA), ATP, trifluoroacetic acid (Millipore Sigma, St. Louis, Mo.), 384-well round-bottom polypropylene microplates (781280, Greiner, Stonehouse, UK), 384-well Anchorchip MALDI targets and Peptide Calibration Standard II (Bruker Daltonics, Billerica, Mass.).
Protocol: The WWP1 ubiquitin depletion assay consists of recombinant UBE1 (5 nM), UBE2D1 conjugating enzyme (60 nM) and WWP1 ligase (50 nM) in a 10 mM HEPES pH 8.0 containing 0.1 mg/mL BSA, 10 mM MgCl2, 1 mM ATP and 1500 nM ubiquitin. Screening was performed by dispensing 3.5 μL of an enzyme solution containing UBE1 (10 nM), UBE2D1 (120 nM), WWP1 (100 nM), ubiquitin ([…]) to a 384-well round bottom polypropylene plates followed by incubation at 37° C. for 30 min. Reactions were initiated by the addition of 3.5 μL of an ATP solution (2000 nM) then incubated at 37° C. for 90 minutes before being quenched by the addition of 5 μL of a 50 mM EDTA solution containing 750 nM of a ubiquitin labelled with a histidine expression tag (m/z=9460.0 Da).
For detection of ubiquitin and the ubiquitin-6His internal standards, 50 nL of quenched reaction was dispensed onto a 384-well Anchorchip MALDI target plate (Bruker) pre-coated with a uniform layer of CHCA crystals immediately followed by 200 nL of a 3 mg/mL CHCA matrix solution (6 mg of CHCA dissolved in 0.7 mL of 100% ethanol and 1.3 mL of 0.31% aqueous TFA) using a TTP Labtech Mosquito liquid handler. Spectra for all reactions were acquired on a Bruker AutoFlex II in positive linear TOF mode from 1000 laser shots with ion suppression below 4000 Da. Spectra were analyzed for response using a centroid peak-fitting algorithm to quantify ubiquitin (m/z=8564.0 Da) and ubiquitin-6His (m/z=9460.0 Da) followed taking the ratio of intensities of ubiquitin and the ubiquitin-6His internal standard.
For compound screening, 140 nL of diluted compound in 100% DMSO was added to the WWP1 enzyme solution and pre-incubated for 30 minutes prior to reaction initiation.

DU-145 cells = assay: Cellular proliferation assay (MTS) in DU-145 cells; type: cell-based; conditions: Homo sapiens, 72 hours of incubation, read-out: IC50 values for selected compounds in DU-145 cells
Description: DU-145 cells were trypsinized, counted via Trypan blue method and resuspended in DMEM complete medium (10% FBS with Pen-strep antibiotics) as described in Lieu et al, Mol Cel Endorinol, 87:19-28, 1992. Cells were seeded at a density of 100 cells per well in 1001 volume of 96-well cell culture plate and were incubated overnight at 37° C. in 5% CO2 incubator. The next day, cells were given fresh media and the test compounds were added in different concentrations. After 72 hours of incubation, MTS reagent (procured from Promega) was added to the cells and they were incubated for an additional 2 hours. Finally, the plates read in the absorbance mode at 490 nm using an ELISA plate reader (Perkin Elmer Victor X3 plate reader). The % growth values were calculated as [(T−T0)/(C−T0)]×100, where T0 is the OD of cells at the time of compound addition, C is the vehicle control, T is the OD of the test concentrations at 72 hours. Percentage inhibition values were calculated using 100−([(T−T0)/(C−T0)]×100). IC50 values were calculated in graph pad prism software using dose response curve nonlinear regression method.

WWP1 mRNA = assay: qPCR of WWP1 mRNA in Du145 shRNA cell lines; conditions: vs empty vector control lines
WWP1 [2] = assay: Western blot of WWP1 protein levels after siRNA, shRNA, ASO or interferon gamma; conditions: A549 and Hs578T cells, 25 ng/mL, 48 hours
PD-L1 [3] = assay: Western blot of PD-L1 in multiple cancer cell lines after siRNA, shRNA or interferon gamma; type: cell-based, human; conditions: 25 ng/mL, 48 hours
Source text: Relative to the vinculin loading control, interferon gamma upregulates PD-L1 protein levels within TNBCs shown to express PD-L1 at baseline.
Analysis occurred via western blot using the indicated antibodies.

SARS-CoV-2 = type: cell-based; conditions: Vero cells, 36 hours
PD-L1 [4] = assay: Western blot of PD-L1 in Hs578T cells; type: cell-based, human; conditions: 48 hours, indicated concentrations of compound
Description: Hs578T cells (human triple negative breast cancer) were treated with the indicated concentration of COMPOUND 1 for 48 hours prior to harvesting. The “0” concentration is DMSO only (0.5%, same as was used for compound doses). […] Analysis occurred via western blot using the indicated antibodies. Quantification by densitometry of the bands from the western blot are presented for PD-L1/Vinculin (loading control) in the absence of interferon gamma, and glycosylated/non-glycosylated PD-L1 in the presence of interferon gamma.
(§1) The data presented here are consistent with the previous replicate in Hs578T cells, and the observation is preserved in another TNBC cell line, BT-20. COMPOUND 1 increases PD-L1 levels and the glycosylated PD-L1/non-glycosylated PD-L1 ratio. Methods are the same as the previous replicate, using the indicated doses.
Hs578T cells (human triple negative breast cancer) were treated with the indicated concentration of COMPOUND 6 for 48 hours before harvesting. The “0” concentration is DMSO only (0.5%, same as was used for compound doses). […] Analysis occurred via western blot using the indicated antibodies. PD-L1 protein levels were reduced relative to the vinculin loading control upon compound treatment. This effect is observed in the presence and absence of interferon gamma (IFN, 25 ng/mL in cell culture media during the drug treatment).
Hs578T cells (human triple negative breast cancer) were treated with the indicated concentration of COMPOUND 7 for 48 hours prior to harvesting. The “0” concentration is DMSO only (0.5%, same as was used for compound doses). […] Analysis occurred via western blot using the indicated antibodies. PD-L1 protein levels were reduced relative to the vinculin loading control upon 319-02 treatment.
The data presented here are consistent with the previous replicate in Hs578T cells. COMPOUND 7 reduces the PD-L1/vinculin loading control ratio. Methods are the same as the previous replicate, using the indicated doses.
(§2) Hs578T cells (human triple negative breast cancer) were treated with the indicated concentration of COMPOUND 8 for 48 hours and then harvested. The “0” concentration is DMSO only (0.5%, same as was used for compound doses). […] Analysis occurred via western blot using the indicated antibodies.
PD-L1-APC (BD Biosciences) and a matched isotype control were used to visualize PD-L1 cell surface expression by flow cytometry (1:250 dilution). As shown by western blot, the knockdown of WWP1 yielded increased PD-L1 protein levels, including an increase in the glycosylated band.
Total RNA was isolated using an RNeasy kit from Qiagen.

[5] = test system: phosphorylated AKT and phosphorylated Ribosomal Protein S6; assay: Western blot of AKT and S6 phosphorylation in Hs578T cells; type: cell-based, human; conditions: 48 hours, indicated concentrations
Description: Hs578T cells (human triple negative breast cancer) were treated with the indicated concentration of COMPOUND 1 for 48 hours prior to harvesting. The “0” concentration is DMSO only (0.5%, same as was used for compound doses). […] Analysis occurred via western blot using the indicated antibodies. Quantification by densitometry of the bands from the western blot are presented for phosphorylated AKT/Total AKT and phosphorylated Ribosomal Protein S6/Total Ribosomal Protein S6. COMPOUND 1 reduced both AKT and S6 phosphorylation relative to their respective total protein levels.
as §1, with “reduces the phospho-AKT/vinculin loading control” for “increases PD-L1 levels”, “phospho-S6/total S6 ratios.” for “the glycosylated PD-L1/non-glycosylated PD-L1 ratio.”
Hs578T cells (human triple negative breast cancer) were treated with the indicated concentration of COMPOUND 6 for 48 hours prior to harvesting. The “0” concentration is DMSO only (0.5%, same as was used for compound doses). […] Analysis occurred via western blot using the indicated antibodies.
The data presented here are consistent with the previous replicate in Hs578T cells. COMPOUND 6 reduces the phospho-AKT/vinculin loading control and phospho-S6/total S6 ratios. Methods are the same as the previous replicate, using the indicated doses.
Hs578T cells (human triple negative breast cancer) were treated with the indicated concentration of COMPOUND 7 for 48 hours before harvesting. The “0” concentration is DMSO only (0.5%, same as was used for compound doses). […] Analysis occurred via western blot using the indicated antibodies.
The data presented here are consistent with the previous replicate in Hs578T cells. COMPOUND 7 reduces the phospho-S6/vinculin loading control ratio. Methods are the same as the previous replicate, using the indicated doses.
as §2

T1 sequence (Q9H0M0 whole entry): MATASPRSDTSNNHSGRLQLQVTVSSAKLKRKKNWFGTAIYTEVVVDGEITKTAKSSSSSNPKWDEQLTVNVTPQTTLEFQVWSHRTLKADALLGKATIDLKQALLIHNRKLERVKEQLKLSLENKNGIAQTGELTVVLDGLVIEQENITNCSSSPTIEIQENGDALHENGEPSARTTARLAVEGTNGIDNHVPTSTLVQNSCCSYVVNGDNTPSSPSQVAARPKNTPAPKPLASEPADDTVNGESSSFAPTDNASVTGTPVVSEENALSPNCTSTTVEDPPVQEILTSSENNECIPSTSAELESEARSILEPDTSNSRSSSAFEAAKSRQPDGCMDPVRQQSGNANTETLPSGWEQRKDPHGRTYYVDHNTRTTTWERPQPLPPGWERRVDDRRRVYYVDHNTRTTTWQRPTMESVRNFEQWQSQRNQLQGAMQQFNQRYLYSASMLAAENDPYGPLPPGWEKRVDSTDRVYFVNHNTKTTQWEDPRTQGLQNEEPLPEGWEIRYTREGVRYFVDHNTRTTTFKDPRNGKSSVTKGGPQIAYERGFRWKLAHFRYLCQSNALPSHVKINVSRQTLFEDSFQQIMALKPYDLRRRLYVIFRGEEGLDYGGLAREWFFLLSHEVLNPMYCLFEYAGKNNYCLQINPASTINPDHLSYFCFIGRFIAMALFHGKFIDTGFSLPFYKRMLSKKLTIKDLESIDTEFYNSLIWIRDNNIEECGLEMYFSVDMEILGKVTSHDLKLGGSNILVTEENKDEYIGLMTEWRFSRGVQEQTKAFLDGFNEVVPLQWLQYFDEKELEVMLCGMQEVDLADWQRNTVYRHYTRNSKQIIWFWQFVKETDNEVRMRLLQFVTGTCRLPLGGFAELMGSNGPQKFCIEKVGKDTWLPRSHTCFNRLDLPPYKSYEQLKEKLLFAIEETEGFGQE

Compound | IC50 (WWP1 [1]) [µM] | IC50 (DU-145 cells) [µM] | further results
interferon gamma: interferon gamma, a stimulator of PD-L1 expression |  |  | KD (reduction) of WWP1 mRNA by qPCR (WWP1 mRNA): 15%; WWP1 levels (WWP1 [2]): reduced; induced PD-L1 expression (PD-L1 [3]; MCF-7 cells (ER+)): not readily observable; PD-L1 protein levels relative to vinculin (PD-L1 [3]; TNBCs (Hs578T, BT-20)): upregulates
OCc1c[nH]c2ccccc12 [Compound I3C, Indole-3-carbinol] |  |  | impact on SARS-CoV-2 infection (SARS-CoV-2; 2.5 μM): little impact on infection; inhibition of SARS-CoV-2 infection (SARS-CoV-2; 5 μM): > 75%
Fc1ccc2[nH]cc(Cc3c[nH]c4ccc(F)cc34)c2c1 [Compound 9, bis(5-fluoro-1H-indol-3-yl)methane] | 66 |  | 

Further lines, with some results ahead:

IC50 (WWP1 [1]) [µM] | IC50 (DU-145 cells) [µM] | Compound | further results
29 | 0.08 | O=C(O)c1ccc2c(Cc3c[nH]c4ccccc34)c[nH]c2c1 [Compound 4, 3-((1H-indol-3-yl)methyl)-1H-indole-6-carboxylic acid] | 
49 | 12 | Fc1cccc2[nH]cc(Cc3c[nH]c4cccc(F)c34)c12 [Compound 8, bis(4-fluoro-1H-indol-3-yl)methane] | PD-L1 levels (relative to vinculin loading control) (PD-L1 [4]): reduced; S6 phosphorylation (relative to total S6 or vinculin loading control) [5]: reduced
~300 |  | O=C(O)c1ccc2[nH]cc(Cc3c[nH]c4ccccc34)c2c1 [Compound 3, 3-((1H-indol-3-yl)methyl)-1H-indole-5-carboxylic acid] | 
26 |  | N#Cc1cc(NC(=O)c2ccc3c(c2)c(C=O)cn3-c2ccccc2)ccn1 [Compound 2, N-(2-cyanopyridin-4-yl)-3-formyl-1-phenyl-1H-indole-5-carboxamide] | 
45 | 5.48 | C#CCNC(=O)c1ccc2c(Cc3c[nH]c4ccccc34)c(C)[nH]c2c1 [Compound 5, 3-((1H-indol-3-yl)methyl)-2-methyl-N-(prop-2-yn-1-yl)-1H-indole-6-carboxamide] | 
